Measurements reported in patent US20090227607A1, “DEAZAPURINES USEFUL AS INHIBITORS OF JANUS KINASES” (priority 2006, published 2009).

Target: JAK-2 enzyme (Homo sapiens, UniProt O60674)
Assay: JAK2 Inhibition Assay
Assay type: biochemical
Conditions: 15 μM poly(Glu)4Tyr, 12 μM ATP, 25° C.
In short: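 JAK2 kinase in HEPES pH 7.4 buffer with MgCl2, DTT, NaCl and BSA; final 15 μM poly(Glu)4Tyr and 12 μM [33P]ATP. Enzyme added to start, 20 min at 25 °C, TCA stop, filter capture and scintillation count of 33P incorporation; Ki values.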

Sequence of JAK-2 enzyme (O60674 whole entry, species assumed): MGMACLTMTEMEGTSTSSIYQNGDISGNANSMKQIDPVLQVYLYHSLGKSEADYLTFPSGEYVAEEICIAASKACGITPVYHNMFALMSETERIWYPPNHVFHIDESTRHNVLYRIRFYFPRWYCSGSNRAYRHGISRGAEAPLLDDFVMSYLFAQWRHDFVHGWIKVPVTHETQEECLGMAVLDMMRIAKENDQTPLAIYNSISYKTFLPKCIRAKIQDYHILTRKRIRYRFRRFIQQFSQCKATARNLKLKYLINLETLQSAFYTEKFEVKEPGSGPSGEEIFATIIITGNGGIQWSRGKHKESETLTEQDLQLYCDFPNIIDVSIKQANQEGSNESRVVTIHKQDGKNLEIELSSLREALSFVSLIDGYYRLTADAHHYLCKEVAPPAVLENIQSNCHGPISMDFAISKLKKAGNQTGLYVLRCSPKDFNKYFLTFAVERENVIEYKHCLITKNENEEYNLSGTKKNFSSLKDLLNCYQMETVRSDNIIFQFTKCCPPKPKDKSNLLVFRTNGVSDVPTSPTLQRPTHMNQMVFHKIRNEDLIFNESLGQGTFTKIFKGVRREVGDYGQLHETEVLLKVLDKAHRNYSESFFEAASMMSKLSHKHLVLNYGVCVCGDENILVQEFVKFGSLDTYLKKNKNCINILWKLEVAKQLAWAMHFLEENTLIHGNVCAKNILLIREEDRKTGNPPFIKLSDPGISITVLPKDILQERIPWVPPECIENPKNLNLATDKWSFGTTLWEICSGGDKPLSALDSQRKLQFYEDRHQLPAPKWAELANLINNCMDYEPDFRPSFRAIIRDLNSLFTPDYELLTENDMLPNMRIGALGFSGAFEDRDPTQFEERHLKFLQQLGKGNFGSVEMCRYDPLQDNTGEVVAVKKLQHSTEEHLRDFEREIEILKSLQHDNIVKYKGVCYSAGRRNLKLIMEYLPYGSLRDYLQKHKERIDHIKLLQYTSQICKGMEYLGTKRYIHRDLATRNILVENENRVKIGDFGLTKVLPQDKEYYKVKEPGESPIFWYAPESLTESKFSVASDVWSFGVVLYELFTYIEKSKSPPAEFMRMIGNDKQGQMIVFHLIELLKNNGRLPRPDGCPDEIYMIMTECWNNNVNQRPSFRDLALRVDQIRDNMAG

Ki [nM] | SMILES
< 100 | Cn1cc(-c2ncnc3[nH]ccc23)cc1C(=O)NCC(F)(F)F [Compound 235]
< 100 | Cn1cc(-c2ncnc3[nH]ccc23)cc1C(=O)N(CC1CCC1)CC(F)(F)F [Compound 238]
< 100 | O=C(c1cc(-c2ncnc3[nH]cc(Cl)c23)c[nH]1)N(CC1CCC1)CC(F)(F)F [Compound 240]
< 100 | O=C(c1cc(-c2ncnc3[nH]cc(Cl)c23)c[nH]1)N(CCC(F)(F)F)CC1CCC1 [Compound 241]
< 100 | N#CCCN(CCC(F)(F)F)C(=O)c1cc(-c2ncnc3[nH]cc(Cl)c23)c[nH]1 [Compound 242]
< 100 | CC(C)CN(CCC#N)C(=O)c1cc(-c2ncnc3[nH]cc(Cl)c23)c[nH]1 [Compound 243]
< 100 | CC(C)CN(CCC(F)(F)F)C(=O)c1cc(-c2ncnc3[nH]cc(Cl)c23)c[nH]1 [Compound 244]
100 to 500 | CC(C)N(CCC(F)(F)F)C(=O)c1cc(-c2ncnc3[nH]ccc23)co1 [Compound 247]
< 100 | O=C(c1cc(-c2ncnc3[nH]ccc23)co1)N(CCC(F)(F)F)CC1CCC1 [Compound 250]
100 to 500 | O=C(c1cc(-c2ncnc3[nH]ccc23)co1)N(CC1CCC1)CC(F)(F)F [Compound 251]
100 to 500 | CC(C)CN(CCC(F)(F)F)C(=O)c1cc(-c2ncnc3[nH]ccc23)co1 [Compound 252]

Second part, the compound before the results:

SMILES | Ki [nM]
CCCCN(CC)C(=O)c1cc(-c2ncnc3[nH]ccc23)cn1C [Compound 232] | < 100
COCCN(C)C(=O)c1cc(-c2ncnc3[nH]ccc23)cn1C [Compound 233] | < 100
CCCN(C)C(=O)c1cc(-c2ncnc3[nH]ccc23)cn1C [Compound 234] | < 100
CCN(CCC#N)C(=O)c1cc(-c2ncnc3[nH]ccc23)cn1C [Compound 237] | < 100
C=CCN(CC=C)C(=O)c1cc(-c2ncnc3[nH]ccc23)co1 [Compound 245] | < 100
CC[C@@H]1CC[C@@H](CC)N1C(=O)c1cc(-c2ncnc3[nH]ccc23)co1 [Compound 246] | < 100
C=CCN(C(=O)c1cc(-c2ncnc3[nH]ccc23)co1)[C@@H](C)c1ccccc1 [Compound 248] | < 100
C=CC(=O)c1c[nH]c2ncnc(-c3ccoc3)c12 [Compound 253] | 500 to 5000

Target: T1, JAK3 (Homo sapiens, UniProt P52333)
T1 sequence (P52333 1-1124): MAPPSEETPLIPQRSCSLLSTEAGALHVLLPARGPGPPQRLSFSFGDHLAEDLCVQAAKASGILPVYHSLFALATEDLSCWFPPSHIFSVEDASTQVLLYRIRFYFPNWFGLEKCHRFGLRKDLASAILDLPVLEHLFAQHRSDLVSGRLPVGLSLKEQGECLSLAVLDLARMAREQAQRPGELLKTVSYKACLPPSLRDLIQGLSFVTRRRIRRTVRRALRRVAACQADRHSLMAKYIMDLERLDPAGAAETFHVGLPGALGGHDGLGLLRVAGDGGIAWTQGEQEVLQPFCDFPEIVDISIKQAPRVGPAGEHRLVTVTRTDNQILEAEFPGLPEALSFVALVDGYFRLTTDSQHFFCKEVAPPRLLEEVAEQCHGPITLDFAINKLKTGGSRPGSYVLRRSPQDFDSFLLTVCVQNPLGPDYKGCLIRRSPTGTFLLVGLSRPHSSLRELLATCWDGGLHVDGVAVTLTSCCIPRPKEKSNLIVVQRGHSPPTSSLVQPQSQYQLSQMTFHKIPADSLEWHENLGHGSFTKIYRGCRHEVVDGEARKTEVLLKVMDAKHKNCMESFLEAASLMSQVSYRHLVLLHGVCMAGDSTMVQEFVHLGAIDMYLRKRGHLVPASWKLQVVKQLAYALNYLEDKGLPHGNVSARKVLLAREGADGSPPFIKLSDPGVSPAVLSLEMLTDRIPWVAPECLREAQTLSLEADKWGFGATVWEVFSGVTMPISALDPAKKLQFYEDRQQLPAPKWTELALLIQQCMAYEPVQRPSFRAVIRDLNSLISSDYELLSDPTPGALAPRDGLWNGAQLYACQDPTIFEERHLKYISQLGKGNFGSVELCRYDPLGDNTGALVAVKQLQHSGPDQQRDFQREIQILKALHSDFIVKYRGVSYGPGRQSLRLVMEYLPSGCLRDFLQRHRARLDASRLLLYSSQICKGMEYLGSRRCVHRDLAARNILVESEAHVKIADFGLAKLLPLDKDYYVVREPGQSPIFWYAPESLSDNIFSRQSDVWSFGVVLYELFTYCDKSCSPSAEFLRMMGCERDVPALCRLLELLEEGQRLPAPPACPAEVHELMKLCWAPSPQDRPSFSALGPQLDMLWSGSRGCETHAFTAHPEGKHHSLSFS
Assay: JAK3 Inhibition Assay
Assay type: biochemical
Conditions: 1 μM poly(Glu)4Tyr, 5 μM ATP, 1 nM JAK3, 25° C.; read-out: JAK3 enzyme inhibition data (Ki)
In short: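 Radiometric JAK3 (1 nM) reaction with 5 μM [33P]ATP and 1 μM poly(Glu)4Tyr in HEPES pH 7.4 buffer, run for 20 min at 25 °C. Reactions were stopped with TCA and filter-captured, and 33P incorporation was counted; values reported as Ki.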

Ki [nM] | SMILES
< 100 | Cn1cc(-c2ncnc3[nH]ccc23)cc1C(=O)NCC(F)(F)F [Compound 235]
100 to 500 | Cn1cc(-c2ncnc3[nH]ccc23)cc1C(=O)N(CC1CCC1)CC(F)(F)F [Compound 238]
< 100 | O=C(c1cc(-c2ncnc3[nH]cc(Cl)c23)c[nH]1)N(CC1CCC1)CC(F)(F)F [Compound 240]
100 to 500 | O=C(c1cc(-c2ncnc3[nH]cc(Cl)c23)c[nH]1)N(CCC(F)(F)F)CC1CCC1 [Compound 241]
< 100 | N#CCCN(CCC(F)(F)F)C(=O)c1cc(-c2ncnc3[nH]cc(Cl)c23)c[nH]1 [Compound 242]
< 100 | CC(C)CN(CCC#N)C(=O)c1cc(-c2ncnc3[nH]cc(Cl)c23)c[nH]1 [Compound 243]
100 to 500 | CC(C)CN(CCC(F)(F)F)C(=O)c1cc(-c2ncnc3[nH]cc(Cl)c23)c[nH]1 [Compound 244]
500 to 5000 | CC(C)N(CCC(F)(F)F)C(=O)c1cc(-c2ncnc3[nH]ccc23)co1 [Compound 247]
100 to 500 | O=C(c1cc(-c2ncnc3[nH]ccc23)co1)N(CCC(F)(F)F)CC1CCC1 [Compound 250]
100 to 500 | O=C(c1cc(-c2ncnc3[nH]ccc23)co1)N(CC1CCC1)CC(F)(F)F [Compound 251]
100 to 500 | CC(C)CN(CCC(F)(F)F)C(=O)c1cc(-c2ncnc3[nH]ccc23)co1 [Compound 252]

Further lines, the compound ahead of its results:

SMILES | Ki [nM]
CCCCN(CC)C(=O)c1cc(-c2ncnc3[nH]ccc23)cn1C [Compound 232] | 100 to 500
COCCN(C)C(=O)c1cc(-c2ncnc3[nH]ccc23)cn1C [Compound 233] | 500 to 5000
CCCN(C)C(=O)c1cc(-c2ncnc3[nH]ccc23)cn1C [Compound 234] | 500 to 5000
CCN(CCC#N)C(=O)c1cc(-c2ncnc3[nH]ccc23)cn1C [Compound 237] | < 100
C=CCN(CC=C)C(=O)c1cc(-c2ncnc3[nH]ccc23)co1 [Compound 245] | 100 to 500
CC[C@@H]1CC[C@@H](CC)N1C(=O)c1cc(-c2ncnc3[nH]ccc23)co1 [Compound 246] | 100 to 500
C=CCN(C(=O)c1cc(-c2ncnc3[nH]ccc23)co1)[C@@H](C)c1ccccc1 [Compound 248] | 100 to 500
C=CC(=O)c1c[nH]c2ncnc(-c3ccoc3)c12 [Compound 253] | 100 to 500
